Data on six compounds can be found in ChEMBL document CHEMBL5352417, “Design, synthesis, and biological evaluation of aromatic tertiary amine derivatives as selective butyrylcholinesterase inhibitors for the treatment of Alzheimer's disease” (Eur J Med Chem, 2022).

Active and inactive are the calls of the source. The rule behind the calls is not given here.

For data set [1], the target named is Acetylcholinesterase (Electrophorus electricus) (UniProt O42275). Description: Inhibition of electric eel AchE using acetylthiocholine iodide as substrate at <10 uM measured for 3 mins by Ellman's method relative to control.
Data set [2] has as its target Cholinesterase (Equus caballus) (UniProt P81908). Description: Inhibition of horse serum BuChE using butyrylthiocholine iodide as substrate at <10 uM measured for 3 mins by Ellman's method relative to control. It counts as cell-free.
Data set [3] addresses Cholinesterase (Equus caballus, UniProt P81908). Description: Inhibition of horse serum BuChE using butyrylthiocholine iodide as substrate measured for 3 mins by Ellman's method. It counts as cell-free. On the technique in general: DTNB colorimetry detects thiols as they appear.
In data set [4] the target is T1, Cholinesterase (Homo sapiens, UniProt P06276). Description: Inhibition of human BChE using butyrylthiocholine iodide as substrate measured for 3 mins by Ellman's method.
Data set [5] can be described thus: Effective permeability of compound at 25 ug/ml incubated for 18 hrs by PAMPA-BBB assay. The class given is ADME. Particulars: dose 25 µg/ml, read-out: Peff. (In PAMPA a lipid-coated filter parts donor from acceptor wells.)
Data set [6] in a line: Neurotoxicity against rat PC12 cells assessed as survival rate incubated for 24 hrs by MTT assay relative to control. It counts as toxicity, cell-based, PC-12. Also on record: concentration or dose not given beside the values. Particulars: read-out: Survival.
The nature of data set [7]: Neurotoxicity against human SH-SY5Y cells assessed as survival rate incubated for 24 hrs by MTT assay relative to control. The class given is toxicity, cell-based. The arrangement: concentration or dose not given beside the values. Particulars: read-out: Survival.
Data set [8] in a line: Neurotoxicity against mouse BV-2 cells incubated for 24 hrs by MTT assay. Particulars: read-out: LD50. The class given is toxicity, cell-based.
Data set [9] is described as follows: Neurotoxicity against mouse HT-22 cells assessed as survival rate incubated for 24 hrs by MTT assay relative to control. The class given is toxicity, cell-based. The arrangement: concentration or dose not given beside the values. Particulars: read-out: Survival. (In general: Formazan colour is commonly taken as a measure of viable cells.)
Data set [10] relates to SH-SY5Y. Kind of data set: Neuroprotective activity against amyloid beta (1 to 42)-induced injury in human SH-SY5Y cells assessed as cell viability at 0.5 to 50 uM by MTT assay. The class given is functional, cell-based. Particulars: dose 0.5-50 µM.
The subject of data set [11] is Mus musculus. Description: Antialzheimer activity against amyloid beta (1 to 42)-induced mouse model of cognitive dysfunction assessed as latency time at 15 mg/kg, po measured for 14 days by Morris Water maze method. Particulars: time 14 day. It counts as functional, ICR.
The subject of data set [12] is Mus musculus. Description: Antialzheimer activity against amyloid beta (1 to 42)-induced mouse model of cognitive dysfunction assessed as reaching target platform at 15 mg/kg, po measured for 14 days by Morris Water maze method. The class given is functional, organism-based. Particulars: ICR, time 14.0 day.
Data set [13] is described as follows: Neurotoxicity against rat PC12 cells incubated for 24 hrs by MTT assay. Particulars: read-out: LD50. The class given is toxicity, cell-based, PC-12.
The nature of data set [14]: Neurotoxicity against human SH-SY5Y cells incubated for 24 hrs by MTT assay. The class given is toxicity, cell-based. Particulars: read-out: LD50.
Data set [15] can be described thus: Neurotoxicity against mouse HT-22 cells incubated for 24 hrs by MTT assay. It counts as toxicity, cell-based. Particulars: read-out: LD50.
Data set [16] deals with Cholinesterase (Mus musculus, UniProt Q03311).
Description: Inhibition of mouse BChE by Ellman's method
Data set [17] relates to Mus musculus. Kind of data set: Antialzheimer activity against amyloid beta (1 to 42)-induced mouse model of cognitive dysfunction assessed as reduction in latency time at 15 mg/kg, po measured for 14 days by Morris Water maze method. The class given is functional, organism-based. Particulars: ICR, time 14.0 day.
In data set [18] the target is T1, Cholinesterase. Kind of data set: Non-competitive inhibition of BChE (unknown origin) using butyrylthiocholine iodide as substrate upto 400 nM measured for 5 mins by Lineweaver-Burk plot analysis.
For data set [19], the system named is SH-SY5Y. Kind of data set: Neuroprotective activity against amyloid beta (1 to 42)-induced injury in human SH-SY5Y cells assessed as cell viability by MTT assay. It counts as functional, cell-based. Particulars: dose 0.5-50 µM.
Data set [20] in a line: Acute toxicity in fasted ICR mouse assessed as animal death at 1 g/kg, po followed by food supply after 2 hrs post compound administration measured for 14 days. Particulars: in vivo, 1000 mg/kg, 336 h, time 14 day. It counts as organism-based.
Data set [21] can be described thus: Acute toxicity in fasted ICR mouse assessed as change in animal growth at 1 g/kg, po administered on day 1 followed by food supply after 2 hrs post compound administration measured after few days after first day administration. It counts as organism-based. Particulars: in vivo, 1000 mg/kg.
Data set [22] is described as follows: Acute toxicity in fasted ICR mouse assessed as obvious toxicity at 1 g/kg, po followed by food supply after 2 hrs post compound administration measured for 14 days. The class given is organism-based. Particulars: in vivo, 1000 mg/kg, 336 h, time 14 day.

T1 sequence (P06276 whole entry): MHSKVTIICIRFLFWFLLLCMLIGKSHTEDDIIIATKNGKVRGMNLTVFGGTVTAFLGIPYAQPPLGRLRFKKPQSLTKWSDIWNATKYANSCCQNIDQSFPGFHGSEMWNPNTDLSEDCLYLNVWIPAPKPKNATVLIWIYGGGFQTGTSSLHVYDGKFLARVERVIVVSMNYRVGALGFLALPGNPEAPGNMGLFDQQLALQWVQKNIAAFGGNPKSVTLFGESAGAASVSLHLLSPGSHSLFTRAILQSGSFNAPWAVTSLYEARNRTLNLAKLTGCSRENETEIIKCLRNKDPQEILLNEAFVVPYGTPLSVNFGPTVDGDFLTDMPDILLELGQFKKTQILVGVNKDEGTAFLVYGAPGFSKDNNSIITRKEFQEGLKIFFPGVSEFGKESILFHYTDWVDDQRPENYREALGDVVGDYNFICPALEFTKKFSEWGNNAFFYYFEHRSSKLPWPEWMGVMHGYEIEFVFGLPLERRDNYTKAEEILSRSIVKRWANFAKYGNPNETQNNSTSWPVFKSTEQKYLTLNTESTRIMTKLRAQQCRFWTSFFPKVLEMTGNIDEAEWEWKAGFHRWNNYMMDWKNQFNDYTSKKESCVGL
Sequence of Acetylcholinesterase (Electrophorus electricus) (O42275 24-633 limits assumed): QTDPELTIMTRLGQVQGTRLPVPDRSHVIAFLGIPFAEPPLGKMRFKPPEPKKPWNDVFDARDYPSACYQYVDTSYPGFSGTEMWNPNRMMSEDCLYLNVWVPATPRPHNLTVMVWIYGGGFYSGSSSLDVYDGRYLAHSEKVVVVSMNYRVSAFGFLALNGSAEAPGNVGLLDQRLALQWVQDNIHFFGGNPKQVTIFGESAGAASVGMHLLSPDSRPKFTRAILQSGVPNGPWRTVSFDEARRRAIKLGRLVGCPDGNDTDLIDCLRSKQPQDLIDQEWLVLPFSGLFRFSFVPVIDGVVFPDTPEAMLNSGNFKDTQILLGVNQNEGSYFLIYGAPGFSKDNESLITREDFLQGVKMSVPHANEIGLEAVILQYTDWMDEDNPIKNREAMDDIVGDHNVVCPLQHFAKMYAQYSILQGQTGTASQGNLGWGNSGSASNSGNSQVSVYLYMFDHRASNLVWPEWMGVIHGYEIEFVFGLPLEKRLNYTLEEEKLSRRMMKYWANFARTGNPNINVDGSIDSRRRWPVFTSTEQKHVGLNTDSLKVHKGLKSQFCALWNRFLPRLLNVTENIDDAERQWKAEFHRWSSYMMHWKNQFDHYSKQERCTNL
Sequence of Cholinesterase (Equus caballus, UniProt P81908) (P81908 whole entry): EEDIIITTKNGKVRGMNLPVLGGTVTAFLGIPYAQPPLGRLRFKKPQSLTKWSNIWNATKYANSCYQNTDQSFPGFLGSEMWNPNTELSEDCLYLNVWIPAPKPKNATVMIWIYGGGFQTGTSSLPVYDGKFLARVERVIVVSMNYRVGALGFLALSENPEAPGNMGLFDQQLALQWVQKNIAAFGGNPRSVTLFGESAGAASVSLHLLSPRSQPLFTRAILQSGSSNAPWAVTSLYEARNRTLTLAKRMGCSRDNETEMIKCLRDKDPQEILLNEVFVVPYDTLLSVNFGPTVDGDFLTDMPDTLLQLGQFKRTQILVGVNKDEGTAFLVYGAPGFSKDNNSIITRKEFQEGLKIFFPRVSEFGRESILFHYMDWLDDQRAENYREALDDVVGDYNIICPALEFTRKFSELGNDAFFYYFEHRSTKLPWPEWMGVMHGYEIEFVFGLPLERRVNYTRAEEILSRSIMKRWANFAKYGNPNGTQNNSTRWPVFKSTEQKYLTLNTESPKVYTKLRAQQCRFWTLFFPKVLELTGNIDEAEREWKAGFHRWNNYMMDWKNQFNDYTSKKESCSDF
Sequence of Cholinesterase (Equus caballus) (P81908 whole entry): as above
Sequence of Cholinesterase (Mus musculus, UniProt Q03311) (Q03311 whole entry): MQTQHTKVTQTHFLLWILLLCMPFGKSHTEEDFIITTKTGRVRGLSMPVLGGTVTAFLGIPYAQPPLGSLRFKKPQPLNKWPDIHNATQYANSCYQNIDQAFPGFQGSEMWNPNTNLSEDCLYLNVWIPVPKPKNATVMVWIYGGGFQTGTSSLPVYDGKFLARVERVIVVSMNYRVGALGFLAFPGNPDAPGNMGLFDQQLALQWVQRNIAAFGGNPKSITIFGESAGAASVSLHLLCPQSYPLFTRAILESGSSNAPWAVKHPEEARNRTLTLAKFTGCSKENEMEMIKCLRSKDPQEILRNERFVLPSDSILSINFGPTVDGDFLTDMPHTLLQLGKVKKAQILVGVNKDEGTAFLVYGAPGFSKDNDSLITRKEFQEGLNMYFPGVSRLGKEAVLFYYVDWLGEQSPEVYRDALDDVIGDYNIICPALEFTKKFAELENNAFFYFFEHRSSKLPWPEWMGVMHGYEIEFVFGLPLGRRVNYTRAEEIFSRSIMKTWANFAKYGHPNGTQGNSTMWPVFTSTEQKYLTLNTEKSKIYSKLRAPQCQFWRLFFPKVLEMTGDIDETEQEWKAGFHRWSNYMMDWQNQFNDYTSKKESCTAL

What is called inhibition is the share of the control response that was lost under treatment. As a reminder, the IC50 is the midpoint of a concentration-inhibition curve. Regarding `CCCCN(CCCc1ccccc1)Cc1ccc2ccccc2c1`, the inhibition in data set [1] turned out to be 23%; in [2] it was 89%. Moreover, the figures for the IC50 at Cholinesterase [3] and against Cholinesterase [4] were 0.23 µM and 0.011 µM, respectively. In data set [5], the Papp at 18 h, 25 ug/ml turned out to be 10.1 ×10⁻⁶ cm/s. The results for the viability at 24 h in [6], in data set [7] and in data set [9] were 51.9%, 85.5% and 51.2%, respectively. In data set [8], the CC50 at 24 h was 34.4 µM. In addition, the outcome with SH-SY5Y [10] was inactive. The Time in the data set on Mus musculus [11] was 14.4 s. In the data set on Mus musculus [12], the result was Active.

For `CCN(CC)CCN(CC(=O)Nc1ccccc1C)Cc1ccc2ccccc2c1`, the results for the inhibition in data set [1] and in data set [2] were 20.1% and 85.6%, respectively. For the same compound, the IC50 against Cholinesterase [3] stood at 1.45 µM; against Cholinesterase [4] it was 0.29 µM. Moreover, the Papp at 18 h, 25 ug/ml in data set [5] worked out at 10.6 ×10⁻⁶ cm/s. The CC50 at 24 h in data set [13] came to 40.6 µM; in data set [14], 50.8 µM; in data set [8], 24.2 µM; in [15], 85.1 µM. Moreover, in the data set on SH-SY5Y [10], the result was inactive.

Regarding `COCCN(CC1CCCN(Cc2ccccc2)C1)S(=O)(=O)c1ccc2ccccc2c1` (stereo not drawn), the IC50 against Cholinesterase [16] was greater than 10 µM.

In the case of `COc1cc2c(cc1OC)C(=O)C(CC1CCN(Cc3ccccc3)CC1)C2` (stereo not drawn), the outcome in the data set on Mus musculus [17] was Active.

For the compound `Cc1ccccc1NC(=O)CN(Cc1ccc2ccccc2c1)CC(C)C`, the inhibition is 22.2% in data set [1] and 94.3% in data set [2]. The figures for the half-maximal inhibitory concentration (IC50) against Cholinesterase [3] and against Cholinesterase [4] were 0.22 µM and 0.016 µM, respectively. Also, on Cholinesterase [18], the inhibition entry is “Active”. In data set [5], the Papp at 18 h, 25 ug/ml amounted to 13.1 ×10⁻⁶ cm/s. Further, the CC50 at 24 h in data set [13] was 78.8 µM; in data set [8], 39.3 µM; in [15] it was 18.9 µM. Moreover, the viability at 24 h in data set [7] amounted to 47.8%. In addition, the Activity result in the data set on SH-SY5Y [19] is “Dose-Dependent Effect”; in [20], “Non-Toxic”; in [21], “Toxic”; in data set [22], “Non-Toxic”. The Time in the data set on Mus musculus [11] is 11.4 s. For the same compound, the result in the data set on Mus musculus [12] was Active.

For `Cc1cccc(NC(=O)CN(Cc2ccccc2)Cc2ccco2)c1C`, the inhibition in data set [1] worked out at 19.7%; in data set [2], 61.9%. The compound also displayed a half-inhibitory concentration (IC50) at Cholinesterase [3] of 2.67 µM. Further, the Papp at 18 h, 25 ug/ml in data set [5] was 9.47 ×10⁻⁶ cm/s. Also, the CC50 at 24 h was 32.1 µM in data set [13], 35 µM in data set [14], 16.6 µM in data set [8] and 46.8 µM in [15].
